# Values of other authors as cited in patent US8062633B2, “Surface sanitizer for the food industry based on three new lactic acid bacteria that have antagonistic action against Listeria monocytogenes, the microorganism that causes listeriosis in humans” (Universidad Austral de Chile, priority 2009, dated 2011).
# Experiments:
# L. monocytogenes = details: 48 h of incubation
# [1] = tested on: Listeria monocytogenes Scott A; details: tofu stored at 10° C.
substance,measurement,setting,value
nisin,regrowth of L. monocytogenes in culture broth,L. monocytogenes,developed resistance and grew again after 48 h
same,development of L. monocytogenes in tofu,[1],Listeria started to grow again from the second day onward
